Laboratory results reported in patent US6638953B2, “Indole derivatives as 5-HT receptor antagonist” (SmithKline Beecham p.l.c., priority 1995, dated 2003).

Test system: not given
Test: not given
Conditions: not given

melting point [°C]	SMILES
208 to 210	Cc1cc2c(cc1C(F)(F)F)N(C(=O)Nc1cccc(-c3cccnc3)c1)CC2 [Example 103]
138 to 140	C=Cc1cc(NC(=O)N2CCc3cc(OC)c(C(F)(F)F)cc32)cc(-c2cccnc2)c1 [Example 104]
220 to 222	COc1cc2c(cc1C(F)(F)F)N(C(=O)Nc1cc(-c3cccnc3)cc(C(F)(F)F)c1)CC2 [Example 105]
183 to 185	COc1cc2c(cc1C(F)(F)F)N(C(=O)Nc1cc(Cl)cc(-c3cccnc3)c1)CC2 [Example 106]
174 to 176	COc1cc2c(cc1C(F)(F)F)N(C(=O)Nc1cc(C(C)=O)cc(-c3cccnc3)c1)CC2 [Example 107]
180 to 181	COc1cc2c(cc1C(F)(F)F)N(C(=O)Nc1cc(-c3cccnc3)c(OC)c(C(F)(F)F)c1)CC2 [Example 108]
153 to 155	COc1cc2c(cc1C(F)(F)F)N(C(=O)Nc1ccc(C)c(-c3cnccc3C)c1)CC2 [Example 109]
179 to 180	COc1cc2c(cc1C(F)(F)F)N(C(=O)Nc1cccc(-c3cccnc3C)c1)CC2 [Example 110]
202 to 204	COc1cc2c(cc1C(F)(F)F)N(C(=O)Nc1cccc(-c3c(C)ccnc3C)c1)CC2 [Example 111]
228 to 230	COc1cc2c(cc1C(F)(F)F)N(C(=O)Nc1cccc(-c3ccc(C)nc3)c1)CC2 [Example 112]
> 220	COc1cc2c(cc1C(F)(F)F)N(C(=O)Nc1cccc(-c3ccnc(C)n3)c1)CC2 [Example 113]
155 to 156	COc1cc2c(cc1C(F)(F)F)N(C(=O)Nc1cc(-c3cccnc3)cc(-c3cccnc3)c1)CC2 [Example 114]
153 to 154	COc1cc2c(cc1C(F)(F)F)N(C(=O)Nc1cc(-c3ccncc3)cc(-c3cccnc3)c1)CC2 [Example 115]
213 to 215	COc1cc2c(cc1C(F)(F)F)N(C(=O)Nc1cc(F)cc(-c3ccc(C)nc3)c1)CC2 [Example 116]
161 to 162	COc1cc2c(cc1C(F)(F)F)N(C(=O)Nc1cccc(-c3cnc(C)cc3C)c1)CC2 [Example 117]
230 to 231	COc1cc2c(cc1C(F)(F)F)N(C(=O)Nc1cc(F)cc(-c3cccnn3)c1)CC2 [Example 118]
245 to 250	COc1cc2c(cc1C(F)(F)F)N(C(=O)Nc1cccc(-c3cncnc3)c1)CC2 [Example 119]
208 to 209	COc1cc2c(cc1C(F)(F)F)N(C(=O)Nc1cccc(-c3cnccn3)c1)CC2 [Example 120]
229 to 231	COc1cc2c(cc1C(F)(F)F)N(C(=O)Nc1cccc(-c3ccc(C)nn3)c1)CC2 [Example 121]
168 to 170	COc1cc2c(cc1C(F)(F)F)N(C(=O)Nc1cc(OC(F)(F)F)cc(-c3cccnc3)c1)CC2 [Example 122]
99 to 100	COc1cc2c(cc1C(F)(F)F)N(C(=O)Nc1ccc(OC(F)(F)F)c(-c3cccnc3)c1)CC2 [Example 123]
244 to 247	COc1cc2c(cc1C(F)(F)F)N(C(=O)Nc1cc(F)c(C)c(-c3cccnc3)c1)CC2 [Example 124]
204 to 205	COc1cc2c(cc1C(F)(F)F)N(C(=O)Nc1cc(F)cc(-c3cccnc3C)c1)CC2 [Example 125]
230 to 231	COc1cc2c(cc1C(F)(F)F)N(C(=O)Nc1cc(F)cc(-c3cnccn3)c1)CC2 [Example 126]

melting point [°C]	SMILES
215 to 218	COc1cc2c(cc1C(F)(F)F)N(C(=O)Nc1cc(F)cc(-c3cnc(C)cc3C)c1)CC2 [Example 127]
188 to 189	COc1cc2c(cc1C(F)(F)F)N(C(=O)Nc1cc(F)c(C)c(N3C=CC=NC3)c1)CC2 [Example 128]
233 to 235	Cc1cc2c(cc1Cl)N(C(=O)Nc1cc(F)c(C)c(-c3cccnc3)c1)CC2 [Example 129]
120 to 121	COc1cc2c(cc1C(F)(F)F)N(C(=O)Nc1cncc(-c3cncnc3)c1)CC2 [Example 130]
226 to 227	Cc1cc2c(cc1Cl)N(C(=O)Nc1cc(F)cc(-c3cnccn3)c1)CC2 [Example 131]
222 to 226	Cc1cc2c(cc1Cl)N(C(=O)Nc1cc(F)cc(-c3cncnc3)c1)CC2 [Example 132]
205 to 206	Cc1cc2c(cc1Cl)N(C(=O)Nc1cc(F)cc(-c3cccnc3C)c1)CC2 [Example 134]
200 to 202	O=C(Nc1ccc(F)c(-c2cccnc2)c1)N1CCc2cc(Cl)c(Cl)cc21 [Example 135]
185 to 186	Cc1cc2c(cc1Cl)N(C(=O)Nc1ccc(F)c(-c3cccnc3)c1)CC2 [Example 136]
202 to 204	COc1cc2c(cc1C(F)(F)F)N(C(=O)Nc1cccc(OCc3cccnc3)c1)CC2 [Example 137]
215 to 217	COc1cc2c(cc1C(F)(F)F)N(C(=O)Nc1ccc(OCc3cccnc3)cc1)CC2 [Example 138]
188 to 190	COc1cc2c(cc1C(F)(F)F)N(C(=O)Nc1cccc(COc3cccnc3)c1)CC2 [Example 139]
230 to 232	COc1cc2c(cc1C(F)(F)F)N(C(=O)Nc1cnc(-c3cccnc3)c(C)c1)CC2 [Example 140]
245 to 250	CSc1cc2c(cc1C(F)(F)F)N(C(=O)Nc1cnc(-c3cccnc3)c(Cl)c1)CC2 [Example 141]
193 to 195	CSc1cc2c(cc1C(F)(F)F)N(C(=O)Nc1ccc(-c3cncc(Cl)c3)nc1)CC2 [Example 142]
193 to 194	COc1cc2c(cc1C(F)(F)F)N(C(=O)Nc1ccc(Oc3cccnc3)cc1)CC2 [Example 143]
204 to 206	CSc1cc2c(cc1C(F)(F)F)N(C(=O)Nc1ccc(Sc3cccnc3)nc1)CC2 [Example 144]
214 to 216	CSc1cc2c(cc1C(F)(F)F)N(C(=O)Nc1ccc(Sc3ccncc3)nc1)CC2 [Example 145]
204 to 206	COc1cc2c(cc1C(F)(F)F)N(C(=O)Nc1ccc(Sc3ccncc3)nc1)CC2 [Example 146]
206 to 209	CSc1cc2c(cc1C(F)(F)F)N(C(=O)Nc1ccc(Cc3ccncc3)cc1)CC2 [Example 147]
210 to 215	CSc1cc2c(cc1C(F)(F)F)N(C(=O)Nc1cccc(C(=O)NCc3cccnc3)c1)CC2 [Example 148]
145 to 146	CSc1cc2c(cc1C(F)(F)F)N(C(=O)Nc1cccc(C(=O)CCc3ccccn3)c1)CC2 [Example 149]
78 to 80	CSc1cc2c(cc1C(F)(F)F)N(C(=O)Nc1cccc(C(O)CCc3ccccn3)c1)CC2 (centres unmarked) [Example 150]
138 to 140	CSc1cc2c(cc1C(F)(F)F)N(C(=O)Nc1ccc(C(=O)NCc3ccncc3)cc1)CC2 [Example 151]

melting point [°C]	SMILES
92 to 94	CSc1cc2c(cc1C(F)(F)F)N(C(=O)Nc1cccc(C(=O)NCCc3ccccn3)c1)CC2 [Example 153]
116 to 118	CSc1cc2c(cc1C(F)(F)F)N(C(=O)Nc1cccc(C(=O)NCc3ccccn3)c1)CC2 [Example 154]
202 to 203	COc1cc2c(cc1C(F)(F)F)N(C(=O)Nc1ccc(Oc3ccccc3)nc1)CC2 [Example 155]
218 to 221	COc1cc2c(cc1C(F)(F)F)N(C(=O)Nc1ccc(Oc3c(C)ccnc3C)nc1)CC2 [Example 156]
226 to 228	COc1cc2c(cc1C(F)(F)F)N(C(=O)Nc1ccc(Oc3ccccc3C)nc1)CC2 [Example 157]
188 to 189	COc1cccc(Oc2ccc(NC(=O)N3CCc4cc(OC)c(C(F)(F)F)cc43)cn2)c1 [Example 158]
208 to 209	COc1cc2c(cc1C(F)(F)F)N(C(=O)Nc1ccc(Oc3ccc(F)cc3C)nc1)CC2 [Example 159]
236 to 238	COc1cc2c(cc1C(F)(F)F)N(C(=O)Nc1ccc(Oc3ccc(C)cc3C)nc1)CC2 [Example 160]
238 to 240	COc1cc2c(cc1C(F)(F)F)N(C(=O)Nc1ccc(Oc3cccnc3Cl)nc1)CC2 [Example 161]
215 to 220	CCc1ccccc1Oc1ccc(NC(=O)N2CCc3cc(OC)c(C(F)(F)F)cc32)cn1 [Example 162]
245 to 248	COc1cc2c(cc1C(F)(F)F)N(C(=O)Nc1ccc(Oc3ccc(C(N)=O)cc3)nc1)CC2 [Example 163]
237 to 238	COc1cc2c(cc1C(F)(F)F)N(C(=O)Nc1ccc(Oc3ccccc3C(F)(F)F)nc1)CC2 [Example 164]
193 to 194	COc1cc2c(cc1C(F)(F)F)N(C(=O)Nc1ccc(Oc3cccc(C(F)(F)F)c3)nc1)CC2 [Example 165]
230 to 233	COc1cc2c(cc1C(F)(F)F)N(C(=O)Nc1ccc(Oc3ccc(C)nc3C)nc1)CC2 [Example 166]
225 to 228	Cc1ncccc1Oc1ccc(NC(=O)N2CCc3cc(Cl)c(Cl)cc32)cn1 [Example 168]
132 to 135	O=C(Nc1ccc(F)c(-c2cncnc2)c1)N1CCc2cc(Cl)c(Cl)cc21 [Example 169]
260	O=C(Nc1cc(F)cc(-c2cncnc2)c1)N1CCc2cc(Cl)c(Cl)cc21 [Example 170]
211 to 213	Cc1cc2c(cc1Cl)N(C(=O)Nc1ccc(F)c(-c3cncnc3)c1)CC2 [Example 171]
214 to 218	O=C(Nc1cc(F)cc(-c2cncnc2)c1)N1CCc2cc(Br)c(C(F)(F)F)cc21 [Example 172]
200 to 201	O=C(Nc1ccc(F)c(-c2cccnc2)c1)N1CCc2cc(Br)c(C(F)(F)F)cc21 [Example 174]
136 to 138	COc1cc2c(cc1C(F)(F)F)N(C(=O)Nc1ccc(Oc3cccc(C#N)c3)nc1)CC2 [Example 175]
188 to 189	COc1cc2c(cc1C(F)(F)F)N(C(=O)Nc1ccc(Oc3ccc(C#N)cc3)nc1)CC2 [Example 176]

Test system: MCPP-induced Hypolocomotion
Test: Reversal of MCPP-induced hypolocomotion
Assay type: in vivo
Conditions: po, procedure of WO 94/04533, read-out: ID50 (the source's name)
Source text: Reversal of MCPP-induced Hypolocomotion

SMILES	ED50 [mg/kg]
COc1cc2c(cc1C(F)(F)F)N(C(=O)Nc1cccc(-c3cccnc3)c1)CC2 [Example 1]	0.5 to 5.5
